Values quoted from earlier work in patent WO2011103442A2, “Synthesis of the potent immunosuppressant agents dalesconol a and b” (Columbia University in the City of New York, priority 2010, dated 2011).
≈ marks a conversion by molar mass, not a printed value.

Key:
[1] = for IC50, immunosuppressive activity: as repeated in the Discussion
acetylcholinesterase = acetylcholinesterase (Homo sapiens, UniProt P22303)
[2] = system: ConA-induced proliferation of mouse spleen cells; conditions: in vitro
[3] = compared with cyclosporin A

acetylcholinesterase, sequence (P22303 32-614): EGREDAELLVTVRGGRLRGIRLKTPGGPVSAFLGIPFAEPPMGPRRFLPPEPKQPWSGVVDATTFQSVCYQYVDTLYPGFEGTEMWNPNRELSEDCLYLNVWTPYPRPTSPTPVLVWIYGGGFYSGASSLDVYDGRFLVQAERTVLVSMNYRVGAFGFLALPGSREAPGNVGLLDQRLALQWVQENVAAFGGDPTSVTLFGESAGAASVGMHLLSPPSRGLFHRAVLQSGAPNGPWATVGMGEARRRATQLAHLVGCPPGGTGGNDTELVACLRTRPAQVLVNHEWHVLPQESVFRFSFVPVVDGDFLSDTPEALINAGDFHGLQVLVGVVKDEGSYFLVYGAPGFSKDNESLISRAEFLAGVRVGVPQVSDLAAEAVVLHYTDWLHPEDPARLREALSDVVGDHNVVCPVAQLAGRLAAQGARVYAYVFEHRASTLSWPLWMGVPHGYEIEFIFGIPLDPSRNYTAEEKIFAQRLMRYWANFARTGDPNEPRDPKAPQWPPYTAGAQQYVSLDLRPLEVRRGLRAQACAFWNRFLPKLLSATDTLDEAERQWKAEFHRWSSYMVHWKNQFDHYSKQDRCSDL

Row | Molecule | IC50, immunosuppressive activity [1] [ng/mL] | acetylcholinesterase inhibition (acetylcholinesterase) | selectivity factor, activity versus cytotoxic effects [2] | immunosuppressive potency of racemic mixture versus separated enantiomers ([1]; racemic mixture) | background cytotoxicity relative to cyclosporin A [3]
1 | cyclosporin A [reference compound] | 6e-05 |  |  |  | 
2 | O=C1CC2CC(=O)c3c(O)cccc3C23C(=C2C=CC(=O)c4c(O)ccc3c42)c2cccc(O)c21 (stereo not drawn) [dalesconol A] | 0.00016 (≈ 0.000346 nM) | potent acetylcholinesterase inhibitor | greater than 500 | more potent than their separated enantiomers | significantly reduced background cytotoxicity
